Measurements reported in article PMC6803969, “Pharmacokinetic Profiling and Simultaneous Determination of Thiopurine Immunosuppressants and Folic Acid by Chromatographic Methods” (Molecules, 2019).

Experiments:
[1] = RP-TLC hydrophobicity assay (RP-18 plates, methanol/phosphate-buffered saline); type: physicochemical; conditions: extrapolated to pure phosphate-buffered saline
Description: In reversed-phase chromatography, retention of analytes is governed by hydrophobicity, and this parameter was evaluated using both TLC and HPLC techniques. Due to high affinity of investigated compounds for octadecylsilane chemically bonded to porous silica applied on chromatographic plates, several analyses with mixtures of phosphate-buffered saline with various concentrations of methanol as mobile phase were performed. […] RM values were obtained according to Equation (1):(1) RM=log(1/RF−1), where RF represents the retention factor. Furthermore, chromatographic parameter of hydrophobicity, RMw, was obtained by extrapolation to pure buffer using the linear Equation (2):(2) RM = RMw − SΦ, where S is the slope of the regression line and φ is the concentration (expressed as volume fraction) of methanol.
TLC experiments were performed on commercially available 10 × 10 cm RP-18 TLC plates (Merck, Darmstadt, Germany). Methanol-phosphate-buffered saline mixtures were used as mobile phases. The methanol volume fraction was varied from 20% to 80% in 5% steps. A sufficient amount of mobile phase was placed in a Camag flat-bottom chamber for 10 × 10 cm plates with a stainless-steel lid to have a level of 5 mm. After saturation of chambers with solvent vapor for 30 min, the plates were developed to a distance of 9 cm at room temperature, dried in open air for 5 min and visualized under λ = 254 nm UV light.

[2] = RP-HPLC hydrophobicity assay (Symmetry C18 column, methanol/phosphate-buffered saline); type: physicochemical; conditions: extrapolated to pure phosphate-buffered saline, 25 °C
Excerpt: The obtained retention times, tR, were used to calculate log k values according to Equation (3): (3) logk=logtR−t0/t0, with t0 being the retention time of an unretained solute, sodium nitrate. Furthermore, chromatographic parameter of hydrophobicity, log kw C18, was obtained by extrapolation to pure buffer using the linear Equation (4):(4) logk = logkw − SΦ, where S is the slope of the regression line and φ is the concentration (expressed as volume fraction) of methanol.
Hydrophobicity of the compounds was also studied on a reversed-phase Symmetry C18 column (150 × 4.6 mm, 3.5 µm particle size) obtained by Waters (Milford, MA, USA). Methanol-phosphate-buffered saline mixtures were used as mobile phases. The methanol volume fraction was varied from 10% to 50% in 5% steps. Each mobile phase was shaken vigorously, filtrated through cellulose nitrate filter (0.45 μm, Sartorius, Goettingen, Germany) and degassed by sonication (5 min) before use.

[3] = Phospholipid binding assay (IAM-HPLC, IAM.PC.DD2 column); type: physicochemical; conditions: for log kw IAM, chromatographic parameter of lipophilicity obtained by IAM-HPLC: phosphate-buffered saline pH 7.4 without organic modifier, 25 °C
Description: The binding of compounds to the immobilized artificial membrane (IAM) was measured using commercially available immobilized phosphatidylcholine columns (IAM.PC.DD2, 100 x 4.6 mm, […]) obtained by Regis Technologies (Morton Grove, IL, USA). The mobile phase consisted of phosphate-buffered saline that was filtrated through cellulose nitrate filter and degassed (5 min) by sonication before use.

[4] = molecular target: human serum albumin (HSA) (Homo sapiens, UniProt P02768); assay: Protein binding assay, HSA-HPLC (Chiralpak-HSA column); type: in vitro ADME; conditions: phosphate buffer pH 7.0/iso-propanol gradient, 25 °C
human serum albumin (HSA), sequence (P02768 25-609): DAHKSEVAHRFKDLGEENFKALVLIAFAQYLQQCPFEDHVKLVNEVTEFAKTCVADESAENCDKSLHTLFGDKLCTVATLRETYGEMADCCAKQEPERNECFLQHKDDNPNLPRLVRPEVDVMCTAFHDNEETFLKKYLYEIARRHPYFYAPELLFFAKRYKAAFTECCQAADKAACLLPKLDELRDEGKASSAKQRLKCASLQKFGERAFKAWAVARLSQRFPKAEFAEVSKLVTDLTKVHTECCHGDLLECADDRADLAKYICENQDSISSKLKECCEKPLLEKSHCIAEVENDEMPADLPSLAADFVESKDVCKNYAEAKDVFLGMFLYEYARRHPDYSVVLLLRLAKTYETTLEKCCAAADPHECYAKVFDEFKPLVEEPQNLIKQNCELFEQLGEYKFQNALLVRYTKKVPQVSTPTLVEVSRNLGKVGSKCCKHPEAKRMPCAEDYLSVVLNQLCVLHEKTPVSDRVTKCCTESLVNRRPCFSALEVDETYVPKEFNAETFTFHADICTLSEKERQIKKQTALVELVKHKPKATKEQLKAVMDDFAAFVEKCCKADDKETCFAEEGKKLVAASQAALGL
Description: (§1) In this study, the gradient retention times are standardized using a calibration set of compounds with known percentage of plasma protein binding data (PPBlit).
(§2) Validation of the methods was performed by evaluation of retention of warfarin enantiomers. As retention time on HSA and AGP columns is dependent on the injected amount of compound, the smallest possible amount of sample was injected so that the compound would not saturate the specific binding site.
(§3) The interactions of analytes with plasma proteins human serum albumin (HSA) and α1-acid glycoprotein (AGP) have been measured using commercially available chemically bonded HSA (Chiralpak-HSA, 50 × 4.6 mm, 5 μm particle size) and AGP (Chiralpak-AGP, 50 × 4.6 mm, 5 μm particle size) columns obtained by ChromTech (Cedex, France). The mobile phase consisted of 20 mM potassium phosphate buffer with the pH adjusted to 7.0 (A) and iso-propanol (B). The gradient program was as follows: 0–3 min, linear gradient 0–30% B, 3–10 min, isocratic 30% B. The total run time was 15 min to allow re-equilibration of the protein phase with the buffer. Injection volume was set at 10 µL, and the measurements were carried out at 25.0 ± 0.1 °C and at flow rate 1.5 mL/min. The absorbance of the analytes during a chromatographic run was collected at the following wavelengths: 250, 280, 300, 320 and 340 nm.

[5] = test system: α1-acid glycoprotein (AGP); assay: Protein binding assay, AGP-HPLC (Chiralpak-AGP column); conditions: phosphate buffer pH 7.0/iso-propanol gradient, 25 °C
Description: as §1, §2, §3

[6] = Extraction solvent evaluation / solubility; type: physicochemical
Description: Protocols utilizing aqueous or organic solvent extraction solutions (acidic, alkaline or neutral pH) combined with at ambient and elevated temperatures shaking and sonication procedures have all been reported. Therefore, one-variable-at-a-time method was applied to find a ubiquitous method suitable for all investigated analytes. […] Folic acid in solution is known to decompose when exposed to ultraviolet light and/or increased temperature; thus, all experiments were performed at ambient temperature using amber laboratory glassware.

[7] = higher levels of NaOH than 0.02 M (0.05 M and 0.1 M)

Row | RMw, chromatographic parameter of hydrophobicity obtained by RP-TLC [1] | log kw C18, chromatographic parameter of hydrophobicity obtained by RP-HPLC [2] | log kw IAM, chromatographic parameter of lipophilicity obtained by IAM-HPLC [3] | PPBHSA, percentage of analyte bound to human serum albumin (HSA) obtained by HSA-HPLC [4] | PPBAGP, percentage of analyte bound to α1-acid glycoprotein (AGP) obtained by AGP-HPLC [5] | difference between log kw C18 and log kw IAM values [3] | solubility ([6]; in basic aqueous solutions) | extraction efficiency ([6]; in methanol) | solubility ([6]; in organic solvents as well as in water) | extraction efficiency ([6]; in water) | stability in NaOH extraction solution [7] | SMILES
1 | 0.21 | 0.32 | 0.03 | 24.11% | 45.96% | – | – | – | – | – | – | Nc1nc2nc[nH]c2c(=S)[nH]1 [6-thioguanine]
2 | 0.23 | 0.45 | −0.19 | – | 22.15% | – | – | – | – | – | – | Sc1ncnc2nc[nH]c12 [6-mercaptopurine]
3 | 0.57 | 0.99 | −0.26 | 69.40% | 3.45% | 1.25 | soluble in basic aqueous solutions | 4.6% | slightly soluble | 22.4% | – | Nc1nc2ncc(CNc3ccc(C(=O)N[C@@H](CCC(=O)O)C(=O)O)cc3)nc2c(=O)[nH]1 [Folic acid, folic acid]
4 | 1.41 | 1.34 | 0.68 | 49.22% | 75.96% | – | – | – | – | – | degradation | Cn1cnc([N+](=O)[O-])c1Sc1ncnc2nc[nH]c12 [Azathioprine, azathioprine]
